In US9662303B2, “Composition and method for treating cancer” (PG-Pharma, LLC, priority 2006, dated 2017):
Read-outs that look alike come from different tables or passages of the source.

Columns and labels:
[1] = test system: human SH-SY5Y neuroblatsoma cells; test: Anti-proliferation/cytotoxic activity of DTS and DTS-BSA complex on SH-SY5Y cells; assay type: cell-based; conditions: for Percentage anti-proliferation activity: SH-SY5Y
Text: 3. […] 4. […] See Williams et al., (2004) West Indian Medical Journal 53 (4) pp. 208-219 for the preparation of cell culture medium and assessment of anti-proliferation/cytotoxic activity on the human SH-SY5Y neuroblatsoma cells (12); the previous reference is hereby incorporated by reference in its entirety. A summary of the results from an experiment involving the above synthesis method were as follows: […]

[2] = Spectrophotometric absorbance binding experiments on pure tyrosine and phenylalanine; conditions: room temperature
Text: Here is an outline of these experiments:
1. A plot of Absorbance (nm) with time (mins) of the interaction with tyrosine and DTS gives a normal distribution (Gaussian) with the highest optimum at room temperature.
2. As temperature is increased there is a lowering of the optimum on the graph until a straight line is created.
4. Phenylalanine, which is an aromatic amino acid, gives a straight line at room temperature with DTS, while DTS and tyrosine give a Gaussian distribution; the height of the curve is a function of the ratio of the DTS used.

[3] = test system: mice; test: Toxicity to mice; assay type: in vivo; conditions: up to 30 mg/kg body weight
Experimental: In addition, concentration of up to 30 mg/kg body weigh was not toxic to mice. DTS seems to activate the bone marrow at 10 mg/kg body weight since granulocytes differential count was increased by 50% (5).

[4] = test system: Peyer's patches; test: Effect on Peyer's patches; conditions: in vivo
Text: The manipulation of various homing factors e.g. L-selectin-mAb LM1-3 and addressin-mAdCAM-1 and integrins such as alpha4beta7 as therapeutic targets on Peyer's patches dendritic cells is a rapidly expanding field in drug development against intestinal bowel diseases (IBD) e.g. colitis, colorectal carcinoma and Chrohn's disease (20;21). DTS caused an enlargement in Peyer's patches possible by an activation of cell proliferation. Thus, based on this finding we hereby proposed that the effect of DTS on the Peyer's patches should be elucidated with the hope of developing drugs against IBD.

[5] = test system: immune system; test: Stimulation of the immune system in mice; assay type: in vivo; conditions: 11 mg/kg body weight
Experimental: The DTS-albumin formulation of the present invention can also be administered to a patient with a formulation dosage that is predetermined based upon data specific to that patient. For example, weight, metabolic factors, genetic factors, etc. can contribute to varying predetermined dosage amounts that are used to prescribe the specific predetermined dosage to the patient. Preferably the formulation dosage is between about 0.023 mg/kg and about 2.3 mg/kg body weight. […] The DTS-BSA complex was active at 0.5 ng/mL in vitro dose, a ratio of about 480. Thus, 11 divided by 480 is about 0.023 mg/Kg body weight (minimum). Similarly, the maximum is about 2.3 mg/Kg body weight. If we assumed that the maximum weigh of a human to be treated with the ATS-albumin complex Is 70 Kg, then the upper limit would be […]=1.61 mg/70 kg body weight.

[6] = test system: SH-SY5Y neuroblastoma; conditions: cited from earlier work
[7] = test system: MCF-7 mammary carcinoma; conditions: cited from earlier work
[8] = test system: IPC-melanoma; conditions: ref (9), cited from earlier work
[9] = test system: A549; conditions: ref (9); cited from earlier work
[10] = test system: A637 primary bladder carcinoma; conditions: ref (9); cited from earlier work
[11] = test system: Jurkat leukaemia; conditions: ref (10); cited from earlier work
[12] = test system: ovarian A2780; conditions: ref (10); cited from earlier work
[13] = test system: ovarian OVCAR4; conditions: ref (10); cited from earlier work
[14] = test system: fibrosarcoma HT1080; conditions: ref (10); cited from earlier work
[15] = test system: non-small cell lung cancer H460; conditions: ref (10); cited from earlier work
[16] = test system: breast M231; conditions: ref (10); cited from earlier work
[17] = test system: adenocarcinoma HeLa; conditions: ref (10); cited from earlier work
[18] = test system: human TE-671 sarcoma cell line; conditions: 0.56 μM, ref (9); cited from earlier work
[19] = target: mitogen-activated protein kinases phosphatase 1 (MKP-1) (Homo sapiens, UniProt P28562); conditions: in vitro; ref (12); cited from earlier work
[20] = target: T1, Bovine Serum Albumin (BSA) (Bos taurus, UniProt P02769); conditions: 500 ng/mL (0.5 μg/mL), pH 6.0; ref (11); cited from earlier work
[21] = target: T1, Bovine Serum Albumin (BSA); conditions: personal communication; cited from earlier work
[22] = test system: MAPKinase (erk 1 and erk 2); conditions: induced by basic fibroblast growth factor (bFGF); 1.0 μM; refs (7;11); cited from earlier work
[23] = test system: human fibroblast (HOFA) cell line; conditions: over seven days; ref (9); cited from earlier work
[24] = test system: bone marrow; conditions: cited from earlier work
[25] = test system: Th-1 and Th-2 cytokines; conditions: Human Mixed Lymphocytes Responses, CD3 dependent activation, cited from earlier work
[26] = test system: thymus; conditions: old mice; refs (5;11); cited from earlier work
[27] = test system: cadherin-5; conditions: human SH-SY5YTRK-A neuroblastoma cells pre-treated with NgF; ref (11); cited from earlier work
[28] = test system: Erythrocytes (red blood cells, RBCs); conditions: RBCs separated from WBCs, in buffer, concentrations higher than those effective on cancer cells; refs (11;32); cited from earlier work
[29] = test system: Starfish embryos; conditions: ref (11); cited from earlier work

T1 sequence (P02769 25-607): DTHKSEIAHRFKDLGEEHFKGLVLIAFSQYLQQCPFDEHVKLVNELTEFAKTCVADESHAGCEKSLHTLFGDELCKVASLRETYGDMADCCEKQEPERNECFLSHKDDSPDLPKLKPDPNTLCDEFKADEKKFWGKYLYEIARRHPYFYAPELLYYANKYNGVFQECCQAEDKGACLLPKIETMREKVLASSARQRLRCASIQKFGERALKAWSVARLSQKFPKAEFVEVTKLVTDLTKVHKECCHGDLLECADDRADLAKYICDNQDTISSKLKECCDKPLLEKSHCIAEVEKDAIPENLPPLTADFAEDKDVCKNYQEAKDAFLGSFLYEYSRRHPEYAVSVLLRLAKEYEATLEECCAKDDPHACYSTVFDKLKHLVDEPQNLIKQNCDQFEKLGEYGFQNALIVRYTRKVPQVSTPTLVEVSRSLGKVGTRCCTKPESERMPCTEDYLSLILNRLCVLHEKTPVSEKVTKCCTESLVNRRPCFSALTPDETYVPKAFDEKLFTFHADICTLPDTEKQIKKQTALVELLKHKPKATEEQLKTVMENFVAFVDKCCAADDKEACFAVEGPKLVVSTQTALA
mitogen-activated protein kinases phosphatase 1 (MKP-1), sequence (P28562 whole entry, species assumed): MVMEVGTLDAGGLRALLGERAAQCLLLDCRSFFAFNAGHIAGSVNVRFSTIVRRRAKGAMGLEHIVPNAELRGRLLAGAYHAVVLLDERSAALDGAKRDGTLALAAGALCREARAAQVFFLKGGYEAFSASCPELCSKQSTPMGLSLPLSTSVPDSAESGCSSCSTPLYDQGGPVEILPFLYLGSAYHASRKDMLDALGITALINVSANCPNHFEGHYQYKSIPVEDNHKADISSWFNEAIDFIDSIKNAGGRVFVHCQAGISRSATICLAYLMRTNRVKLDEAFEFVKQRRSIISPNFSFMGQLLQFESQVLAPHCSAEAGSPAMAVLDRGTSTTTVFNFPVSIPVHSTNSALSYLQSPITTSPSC

In the case of `c1ccc(CSSSCc2ccccc2)cc1` [DTS, dibenzyl trisulphide], the “effective in vitro dose” value ([1]; DTS alone, in vitro, cell system not stated) is reported as 240 ng/mL, the Percentage anti-proliferation activity ([1]; DTS at 39 ng/mL (No BSA)) is reported as 1.68% and the Percentage anti-proliferation activity ([1]; DTS at 78 ng/mL (No BSA)) is reported as 38.22%. For the same compound, the Percentage anti-proliferation activity ([1]; DTS at 1.25 μg/mL (No BSA)) was 93.00%, the “binding to aromatic amino acids (absorbance)” value [2] was “binds only to tyrosine” and the toxicity to mice [3] was “not toxic”. The “Peyer's patches size” value [4] was “enlargement”, the “effect on the immune system” value [5] was “stimulated the immune system” and the “enhancement of cytotoxic action by complexing DTS to Bovine Serum Albumin” value ([6]; SH-SY5Y in vitro, refs (11;12)) was 70 fold. The IC50 ([6]; SH-SY5Y neuroblastoma, ref (9)) was 0.43 µM, the IC50 ([7]; ref (9)) was 2.24 µM and the IC50 ([7]; ref (10)) was 6.6 µM. The “nuclear morphology (mitotic catastrophe)” value ([8]; IPC-melanoma cells exposed to 1.0 μM) was “nuclear fragmentation”, the IC50 ([8]; IPC-melanoma) was 2.9 µM and the IC50 [9] was 15.8 µM. For the same compound, the IC50 [10] was 18.8 µM, the IC50 [11] was 0.35 µM and the IC50 [12] was 0.4 µM. For the same compound, the IC50 [13] was 1.4 µM, the IC50 [14] was 1.9 µM and the IC50 [15] was 5.1 µM. The IC50 [16] was 2.4 µM, the IC50 [17] was 2.5 µM and the anti-proliferation/cytotoxic activity [18] was 44.67%. For the same compound, the “binding of MKP-1 to its substrate OMFP” value [19] was “enhance”, the “protection of BSA from denaturation” value [20] was 50.83% and the “binding of glucose to BSA” value [21] was “inhibit”. For the same compound, the “hyperphosphorylation of MAPKinase (erk 1 and erk 2) signalling” value [22] was 30%, the “toxicity to human fibroblast (HOFA) cell line” value [23] was “not to be toxic” and the “increase of granulocytes differential count” value ([24]; 10 mg/kg body weight, ref (5)) was 50%. The “production of granulocytes and erythrocytes” value ([24]; refs (5;11)) was “increased”, the “Th-2 cytokines such as IL-4” value [25] was “up-regulated” and the Th-1 cytokines ([25]; ref (11)) was “down regulates”. For the same compound, the thymic weight [26] was “increase”, the “expression of cadherin-5” value [27] was “up-regulate” and the effect on erythrocytes [28] was “cell-cell attraction with morphological changes without lysis”. For the same compound, the “effect on protein biosynthesis” value [29] was “did not have any effect”.
